Test results taken from PubChem BioAssay AID2060503 (Molecular Pharmacology Branch, DTP, NCI, 2025).
“And” between values parts separate entries of the source, which are not always exact repeats. Equal values may be shown once.

Tested on: 817829-284-R-J1-PDC complex spheroids, viability
Assay: Anticancer human tumor 817829-284-R-J1-PDC patient-derived colon adenocarcinoma cell line growth inhibition [GQUAD]
Settings: for viability, T/C: stronger effect = lower value
Excerpt: DNA G-quadruplex Stabilizer Agents in Combinations in Complex Spheroids
A high-throughput screen of multi-cell type tumor spheroids was designed to identify active combinations of DNA G-quadruplex stabilizer agents and targeted small molecules. Complex spheroids include a stromal component modeled by human endothelial cells (HUVEC) and fibroblasts modeled by human mesenchymal stem cells (MSCs). The concentration ranges selected for each drug and investigational agent were based upon clinically achievable concentrations if the clinical Cmax of the agent was known.
Compounds. The drugs and investigational agents: pidnarulex (CX-5461; NSC782164), APTO-253 (NSC789042), BRACO-19 (NSC847499), peposertib (NSC802822), ceralasertib (NSC780249), elimusertib (NSC800525), camonsertib (NSC841442), AZD-1390 (NSC803789), olaparib (NSC753686), talazoparib (NSC767125), ART-558 (NSC835418), sotorasib (NSC818433), MRTX-1133 (NSC836407), SN-38 (NSC673596), topotecan (NSC609699), etoposide (NSC141540), doxorubicin (NSC123127), gemcitabine (NSC613327), 5-fluorouracil (NSC19893), paclitaxel (NSC125973), vemurafenib (NSC761431), panobinostat (NSC761190), R-306465 (JNJ-16241199; NSC773264), adavosertib (NSC754352), TP-3654 (NSC805149), carboplatin (NSC241240), KSQ-4279 (NSC840948), and staurosporine (NSC755774) were obtained from the National Cancer Institute (NCI) Developmental Therapeutics Program Chemical Repository (34). The FDA-approved anticancer drug set is available from the NCI Developmental Therapeutics Program. […] The stock solutions were prepared in dimethyl sulfoxide (DMSO, Sigma-Aldrich, St. Louis, MO, cat. D2650) at 800-fold the tested concentration and stored at -70 degrees C prior to their use. All drugs and investigational agents were tested over a range starting from a high concentration at or near the clinical Cmax and decreasing in half-log increments. If the clinical Cmax for an agent had not been determined, the highest concentration tested was 10 microM.
2.3 Cell Culture. All cells were maintained in an incubator at 37 degrees C and 5% CO2 with 95% humidity. The PDC lines were cultured according to standard operating procedures established by the NCI PDMR. All PDCs were thawed and cultured in Matrigel-coated flasks prepared with a working solution of 1X Ham's F-12 nutrient mix, without supplementation (Invitrogen, cat. 11765054), 100 U/mL penicillin-streptomycin (Invitrogen, cat. 15140122), and 2.5% Matrigel (Corning Inc., cat. 354248) for the first three passages. The 857933-349-R-J2-PDC line was cultured in 6C/Colon 1B media, which includes advanced DMEM/F-12 (Thermo Fisher Scientific, cat. 12634028), 10 mM HEPES (Thermo Fisher Scientific, cat. 15630080), 1X GlutaMAX supplement (Thermo Fisher Scientific, cat. 35050061), 0.1 mg/mL primocin (InvivoGen, cat. ant-pm-2), 10% defined fetal bovine serum, heat inactivated (HyClone Laboratories Inc., cat. SH30070.03HI), 50% L-WRN conditioned media (ATCC, cat. CRL-3276), 1.25 mM N-Acetyl-L-cysteine (Sigma-Aldrich, cat. A9165), 10 mM nicotinamide (Sigma-Aldrich, cat. N0636), 1X B-27 supplement (Thermo Fisher Scientific, cat. 17504044), 1X N-2 supplement (Thermo Fisher Scientific, cat. 17502048), 10 microM Y-27632 dihydrochloride (Tocris Bioscience, cat. 1254), and 50 ng/mL human EGF recombinant protein (Thermo Fisher Scientific, cat. PHG0311). The 485176-168-R4-J1-PDC line was cultured in Panc media, which includes all 6C/Colon 1B media components plus 100 ng/mL human FGF-10 (Thermo Fisher Scientific, cat. 100-26), 500 nM SB-431542 (Selleckchem, cat. S1067), and gastrin (Tocris, cat. 3006).
[…]

[1] = curve of first compound, second compound 0.0316 µM
[2] = curve of first compound, second compound 0.1 µM
[3] = curve of first compound, second compound 0.316 µM
[4] = curve of first compound, second compound 1 µM
[5] = curve of first compound, second compound 3.16 µM
[6] = curve of first compound, second compound 10 µM
[7] = second compound 0.0316 µM, first compound 0.0316 µM
[8] = second compound 0.0316 µM, first compound 0.1 µM
[9] = second compound 0.0316 µM, first compound 0.316 µM
[10] = second compound 0.0316 µM, first compound 1 µM
[11] = second compound 0.0316 µM, first compound 3.16 µM
[12] = second compound 0.0316 µM, first compound 10 µM
[13] = second compound 0.1 µM, first compound 0.0316 µM
[14] = second compound 0.1 µM, first compound 0.1 µM
[15] = second compound 0.1 µM, first compound 0.316 µM
[16] = second compound 0.1 µM, first compound 1 µM
[17] = second compound 0.1 µM, first compound 3.16 µM
[18] = second compound 0.1 µM, first compound 10 µM
[19] = second compound 0.316 µM, first compound 0.0316 µM
[20] = second compound 0.316 µM, first compound 0.1 µM
[21] = second compound 0.316 µM, first compound 0.316 µM
[22] = second compound 0.316 µM, first compound 1 µM
[23] = second compound 0.316 µM, first compound 3.16 µM
[24] = second compound 0.316 µM, first compound 10 µM
[25] = second compound 1 µM, first compound 0.0316 µM
[26] = second compound 1 µM, first compound 0.1 µM
[27] = second compound 1 µM, first compound 0.316 µM
[28] = second compound 1 µM, first compound 1 µM
[29] = second compound 1 µM, first compound 3.16 µM
[30] = second compound 1 µM, first compound 10 µM
[31] = second compound 3.16 µM, first compound 0.0316 µM
[32] = second compound 3.16 µM, first compound 0.1 µM
[33] = second compound 3.16 µM, first compound 0.316 µM
[34] = second compound 3.16 µM, first compound 1 µM
[35] = second compound 3.16 µM, first compound 3.16 µM
[36] = second compound 3.16 µM, first compound 10 µM
[37] = second compound 10 µM, first compound 0.0316 µM
[38] = second compound 10 µM, first compound 0.1 µM
[39] = second compound 10 µM, first compound 0.316 µM
[40] = second compound 10 µM, first compound 1 µM
[41] = second compound 10 µM, first compound 3.16 µM
[42] = second compound 10 µM, first compound 10 µM
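Also: spheroids exposed to agents for 7 days before readout.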
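For viability, T/C in this document: percent viability relative to DMSO vehicle control taken as 100%.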

Q: `CCCS(=O)(=O)Nc1ccc(F)c(C(=O)c2c[nH]c3ncc(-c4ccc(Cl)cc4)cc23)c1F` + CN(C)c1ccc(Nc2c3ccc(NC(=O)CCN4CCCC4)cc3nc3cc(NC(=O)CCN4CCCC4)ccc23)cc1 was tested. Which IC50 [1] did it give?
A: 5.75 µM

Q: What about the IC50 [2] of the same compound?
A: 5.66 µM

Q: What about the IC50 [3] of the same compound?
A: 5.88 µM

Q: And the IC50 [4]?
A: 5.68 µM

Q: What about the IC50 [5] of the same compound?
A: 5.32 µM

Q: And the IC50 [6]?
A: 1.47 µM

Q: And the viability, T/C [7]?
A: 113%

Q: What about the viability, T/C [8] of the same compound?
A: 112%

Q: And the viability, T/C [9]?
A: 107%

Q: What about the viability, T/C [10] of the same compound?
A: 98.5%

Q: What about the viability, T/C [11] of the same compound?
A: 80.8%

Q: And the viability, T/C [12]?
A: 22.4%

Q: And the viability, T/C [13]?
A: 98.9%

Q: What about the viability, T/C [14] of the same compound?
A: 116%

Q: What about the viability, T/C [15] of the same compound?
A: 100%

Q: What about the viability, T/C [16] of the same compound?
A: 102%

Q: What about the viability, T/C [17] of the same compound?
A: 79.1%

Q: And the viability, T/C [18]?
A: 21.5%

Q: What about the viability, T/C [19] of the same compound?
A: 107%

Q: What about the viability, T/C [20] of the same compound?
A: 115%

Q: What about the viability, T/C [21] of the same compound?
A: 97.7%

Q: And the viability, T/C [22]?
A: 111%

Q: And the viability, T/C [23]?
A: 84%

Q: And the viability, T/C [24]?
A: 20.9%

Q: And the viability, T/C [25]?
A: 109%

Q: And the viability, T/C [26]?
A: 110%

Q: What about the viability, T/C [27] of the same compound?
A: 104%

Q: And the viability, T/C [28]?
A: 98%

Q: What about the viability, T/C [29] of the same compound?
A: 79.8%

Q: And the viability, T/C [30]?
A: 22.2%

Q: And the viability, T/C [31]?
A: 106%

Q: What about the viability, T/C [32] of the same compound?
A: 112%

Q: What about the viability, T/C [33] of the same compound?
A: 95.6%

Q: What about the viability, T/C [34] of the same compound?
A: 96.1%

Q: What about the viability, T/C [35] of the same compound?
A: 76.3%

Q: And the viability, T/C [36]?
A: 19.1%

Q: And the viability, T/C [37]?
A: 94.4%

Q: What about the viability, T/C [38] of the same compound?
A: 87.3%

Q: What about the viability, T/C [39] of the same compound?
A: 63.2%

Q: And the viability, T/C [40]?
A: 66.6%

Q: What about the viability, T/C [41] of the same compound?
A: 32.8%

Q: And the viability, T/C [42]?
A: 7.36%

Q: `COc1cc(C2c3cc4c(cc3C(OC3OC5COC(C)OC5C(O)C3O)C3COC(=O)C23)OCO4)cc(OC)c1O` (stereo unspecified) + CN(C)c1ccc(Nc2c3ccc(NC(=O)CCN4CCCC4)cc3nc3cc(NC(=O)CCN4CCCC4)ccc23)cc1 was tested. Which IC50 [1] did it give?
A: 0.378 µM

Q: And the IC50 [2]?
A: 0.434 µM

Q: What about the IC50 [3] of the same compound?
A: 0.375 µM

Q: What about the IC50 [4] of the same compound?
A: 0.229 µM

Q: And the IC50 [5]?
A: 0.227 µM

Q: What about the IC50 [6] of the same compound?
A: 0.295 µM

Q: And the viability, T/C [7]?
A: 103%

Q: And the viability, T/C [8]?
A: 85.7%

Q: And the viability, T/C [9]?
A: 35%

Q: What about the viability, T/C [10] of the same compound?
A: 42.8%

Q: And the viability, T/C [11]?
A: 32.1%

Q: And the viability, T/C [12]?
A: 10.2%

Q: What about the viability, T/C [13] of the same compound?
A: 97.5%

Q: And the viability, T/C [14]?
A: 88.6%

Q: What about the viability, T/C [15] of the same compound?
A: 34.5%

Q: What about the viability, T/C [16] of the same compound?
A: 44.9%

Q: And the viability, T/C [17]?
A: 33.9%

Q: What about the viability, T/C [18] of the same compound?
A: 11%

Q: And the viability, T/C [19]?
A: 92.7%

Q: What about the viability, T/C [20] of the same compound?
A: 81.6%

Q: What about the viability, T/C [21] of the same compound?
A: 37.7%

Q: And the viability, T/C [22]?
A: 40.4%

Q: What about the viability, T/C [23] of the same compound?
A: 33.3%

Q: What about the viability, T/C [24] of the same compound?
A: 11.8%

Q: What about the viability, T/C [25] of the same compound?
A: 101%

Q: What about the viability, T/C [26] of the same compound?
A: 92.1%

Q: And the viability, T/C [27]?
A: 33.1%

Q: What about the viability, T/C [28] of the same compound?
A: 40.7%

Q: What about the viability, T/C [29] of the same compound?
A: 32%

Q: What about the viability, T/C [30] of the same compound?
A: 9.94%

Q: And the viability, T/C [31]?
A: 95.4%

Q: What about the viability, T/C [32] of the same compound?
A: 87.9%

Q: What about the viability, T/C [33] of the same compound?
A: 34.3%

Q: What about the viability, T/C [34] of the same compound?
A: 37%

Q: What about the viability, T/C [35] of the same compound?
A: 30.7%

Q: What about the viability, T/C [36] of the same compound?
A: 10.4%

Q: And the viability, T/C [37]?
A: 86.9%

Q: What about the viability, T/C [38] of the same compound?
A: 68.2%

Q: And the viability, T/C [39]?
A: 37.1%

Q: And the viability, T/C [40]?
A: 41.5%

Q: What about the viability, T/C [41] of the same compound?
A: 27.3%

Q: What about the viability, T/C [42] of the same compound?
A: 10%

Q: `COc1ncnc(C2CC2)c1-c1ncc2cnn(Cc3ccc(-c4nc(C(F)(F)F)cn4C(C)C)cc3)c2n1` was tested. Which viability, T/C (compound 0.0316 µM) did it give?
A: 96.6% and 97.8% and 103%

Q: What about the viability, T/C (compound 0.1 µM) of the same compound?
A: 97.4% and 111% and 113%

Q: What about the viability, T/C (compound 0.316 µM) of the same compound?
A: 99.2% and 107% and 110%

Q: And the viability, T/C (compound 1 µM)?
A: 84.8% and 117% and 106%

Q: And the viability, T/C (compound 3.16 µM)?
A: 102% and 106% and 111%

Q: What about the viability, T/C (compound 10 µM) of the same compound?
A: 116% and 114% and 115%

Q: What about the IC50 (curve of compound) of the same compound?
A: > 10 µM
